Assay results taken from publication PMC9005681, “Use of AD Informer Set compounds to explore validity of novel targets in Alzheimer's disease pathology” (Alzheimer's & Dementia : Translational Research & Clinical …, 2022).
“And” between values parts separate entries of the source, which are not always exact repeats. Equal values may be shown once.

Key:
[1] = target: T1, cloned human or rodent CNS receptors, channels, and transporters (PDSP panel) (Homo sapiens, UniProt P08172); assay: PDSP GPCR panel primary binding assays at 10 μM; settings: M2, primary assay; for Mean %: mean inhibition; for Inhibition 1: replicate 1; for Inhibition 2: replicate 2; for Inhibition 3: replicate 3; for Inhibition 4: replicate 4
T1 construct: expressed in transfected cells
T1 sequence (P08172 1-466): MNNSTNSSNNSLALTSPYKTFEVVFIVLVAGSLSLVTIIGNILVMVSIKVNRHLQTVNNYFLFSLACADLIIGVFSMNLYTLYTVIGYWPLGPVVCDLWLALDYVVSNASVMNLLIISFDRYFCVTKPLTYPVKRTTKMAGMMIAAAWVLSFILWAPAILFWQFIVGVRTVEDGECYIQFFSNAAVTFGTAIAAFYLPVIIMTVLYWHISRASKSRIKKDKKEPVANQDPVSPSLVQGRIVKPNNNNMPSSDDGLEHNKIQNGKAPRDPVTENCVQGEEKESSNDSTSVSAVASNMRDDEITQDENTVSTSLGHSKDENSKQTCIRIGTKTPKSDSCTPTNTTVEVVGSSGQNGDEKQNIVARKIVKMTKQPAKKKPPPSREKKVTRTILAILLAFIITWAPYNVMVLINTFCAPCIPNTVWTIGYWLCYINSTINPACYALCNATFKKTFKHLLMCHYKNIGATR
Protocol: (§1) GPCR panel: Screening against the receptors within the PDSP panel offers an assessment of off-target pharmacological activity at cloned human or rodent CNS receptors, channels, and transporters that could confound CNS-related phenotypes. A total of 46–47 primary binding assays were run in quadruplicate on these compounds at 10 μM, with follow-up secondary binding assays in 11-point dose-response in triplicate for select compounds versus select receptors. Secondary binding assays were executed for all receptors where test compound displaced an average of >50% of radio-labeled standard ligand. As an exception, no secondary assays were carried out for H3, PBR, or GABAA. […]

[2] = target: T2, cloned human or rodent CNS receptors, channels, and transporters (PDSP panel) (Homo sapiens, UniProt P08908); assay: PDSP GPCR panel primary binding assays at 10 μM; settings: 5-HT1A, primary assay; for Mean %: mean inhibition; for Inhibition 1: replicate 1; for Inhibition 2: replicate 2; for Inhibition 3: replicate 3; for Inhibition 4: replicate 4
T2 construct: expressed in transfected cells
T2 sequence (P08908 1-422): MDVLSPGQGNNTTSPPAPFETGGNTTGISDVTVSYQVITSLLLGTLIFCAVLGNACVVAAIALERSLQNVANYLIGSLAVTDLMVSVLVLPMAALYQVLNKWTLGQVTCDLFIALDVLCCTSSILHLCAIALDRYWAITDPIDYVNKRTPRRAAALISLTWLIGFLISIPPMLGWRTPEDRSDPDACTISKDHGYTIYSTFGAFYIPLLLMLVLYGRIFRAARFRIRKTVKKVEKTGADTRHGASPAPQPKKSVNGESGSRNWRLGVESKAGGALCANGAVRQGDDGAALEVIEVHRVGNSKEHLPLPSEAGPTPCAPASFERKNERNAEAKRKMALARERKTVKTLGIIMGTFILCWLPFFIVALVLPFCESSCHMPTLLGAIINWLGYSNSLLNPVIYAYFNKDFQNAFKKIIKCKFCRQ
Protocol: as §1

[3] = target: T3, cloned human or rodent CNS receptors, channels, and transporters (PDSP panel) (Homo sapiens, UniProt P14416); assay: PDSP GPCR panel primary binding assays at 10 μM; settings: D2, primary assay; for Mean %: mean inhibition; for Inhibition 1: replicate 1; for Inhibition 2: replicate 2; for Inhibition 3: replicate 3; for Inhibition 4: replicate 4
T3 construct: expressed in transfected cells
T3 sequence (P14416 whole entry): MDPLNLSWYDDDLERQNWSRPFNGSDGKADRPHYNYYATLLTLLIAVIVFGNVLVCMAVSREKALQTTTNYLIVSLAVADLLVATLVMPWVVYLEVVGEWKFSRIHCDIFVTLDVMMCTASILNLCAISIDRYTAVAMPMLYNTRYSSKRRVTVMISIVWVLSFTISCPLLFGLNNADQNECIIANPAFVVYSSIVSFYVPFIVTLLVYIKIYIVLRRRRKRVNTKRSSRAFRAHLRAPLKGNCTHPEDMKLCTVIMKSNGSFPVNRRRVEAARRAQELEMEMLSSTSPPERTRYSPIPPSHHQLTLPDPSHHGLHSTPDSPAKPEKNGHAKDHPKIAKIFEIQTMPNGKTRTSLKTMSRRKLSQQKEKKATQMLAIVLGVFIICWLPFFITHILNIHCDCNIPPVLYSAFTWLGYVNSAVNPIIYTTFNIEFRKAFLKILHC
Protocol: as §1

[4] = target: T4, cloned human or rodent CNS receptors, channels, and transporters (PDSP panel) (Homo sapiens, UniProt P21918); assay: PDSP GPCR panel primary binding assays at 10 μM; settings: D5, primary assay; for Mean %: mean inhibition; for Inhibition 1: replicate 1; for Inhibition 2: replicate 2; for Inhibition 3: replicate 3; for Inhibition 4: replicate 4
T4 construct: expressed in transfected cells
T4 sequence (P21918 whole entry): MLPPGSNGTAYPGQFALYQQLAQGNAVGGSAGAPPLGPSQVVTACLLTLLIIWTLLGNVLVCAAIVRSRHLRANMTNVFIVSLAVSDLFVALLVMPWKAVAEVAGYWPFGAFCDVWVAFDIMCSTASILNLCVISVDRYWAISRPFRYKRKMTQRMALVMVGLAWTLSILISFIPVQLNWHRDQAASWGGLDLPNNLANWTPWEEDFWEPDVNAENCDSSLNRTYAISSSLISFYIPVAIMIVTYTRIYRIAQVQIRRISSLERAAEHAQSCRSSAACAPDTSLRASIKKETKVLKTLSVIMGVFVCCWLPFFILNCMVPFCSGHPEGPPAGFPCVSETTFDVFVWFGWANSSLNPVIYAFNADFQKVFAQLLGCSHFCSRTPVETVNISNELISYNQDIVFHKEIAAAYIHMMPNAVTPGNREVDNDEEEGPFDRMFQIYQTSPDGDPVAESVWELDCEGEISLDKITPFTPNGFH
Protocol: as §1

[5] = target: T5, cloned human or rodent CNS receptors, channels, and transporters (PDSP panel) (Homo sapiens, UniProt P23975); assay: PDSP GPCR panel primary binding assays at 10 μM; settings: NET, primary assay; for Mean %: mean inhibition; for Inhibition 1: replicate 1; for Inhibition 2: replicate 2; for Inhibition 3: replicate 3; for Inhibition 4: replicate 4
T5 construct: expressed in transfected cells
T5 sequence (P23975 whole entry): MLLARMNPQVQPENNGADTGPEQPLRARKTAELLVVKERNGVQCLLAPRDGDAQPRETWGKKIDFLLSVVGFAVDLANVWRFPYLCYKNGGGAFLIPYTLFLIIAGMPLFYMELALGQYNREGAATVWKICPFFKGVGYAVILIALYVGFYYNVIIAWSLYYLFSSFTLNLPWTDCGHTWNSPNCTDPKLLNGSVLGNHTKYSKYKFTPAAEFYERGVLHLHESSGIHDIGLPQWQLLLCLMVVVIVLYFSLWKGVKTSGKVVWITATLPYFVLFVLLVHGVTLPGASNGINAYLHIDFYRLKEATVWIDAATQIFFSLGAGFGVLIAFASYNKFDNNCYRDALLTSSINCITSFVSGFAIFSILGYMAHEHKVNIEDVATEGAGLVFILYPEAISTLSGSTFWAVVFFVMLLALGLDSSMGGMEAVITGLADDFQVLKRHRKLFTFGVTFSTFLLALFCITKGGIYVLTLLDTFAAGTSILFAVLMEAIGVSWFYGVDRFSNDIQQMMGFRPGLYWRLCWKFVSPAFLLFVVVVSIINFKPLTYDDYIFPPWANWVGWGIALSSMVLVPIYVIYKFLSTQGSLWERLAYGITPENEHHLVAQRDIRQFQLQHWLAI
Protocol: as §1

[6] = target: T6, cloned human or rodent CNS receptors, channels, and transporters (PDSP panel) (Homo sapiens, UniProt P28222); assay: PDSP GPCR panel primary binding assays at 10 μM; settings: 5-HT1B, primary assay; for Mean %: mean inhibition; for Inhibition 1: replicate 1; for Inhibition 2: replicate 2; for Inhibition 3: replicate 3; for Inhibition 4: replicate 4
T6 construct: expressed in transfected cells
T6 sequence (P28222 whole entry): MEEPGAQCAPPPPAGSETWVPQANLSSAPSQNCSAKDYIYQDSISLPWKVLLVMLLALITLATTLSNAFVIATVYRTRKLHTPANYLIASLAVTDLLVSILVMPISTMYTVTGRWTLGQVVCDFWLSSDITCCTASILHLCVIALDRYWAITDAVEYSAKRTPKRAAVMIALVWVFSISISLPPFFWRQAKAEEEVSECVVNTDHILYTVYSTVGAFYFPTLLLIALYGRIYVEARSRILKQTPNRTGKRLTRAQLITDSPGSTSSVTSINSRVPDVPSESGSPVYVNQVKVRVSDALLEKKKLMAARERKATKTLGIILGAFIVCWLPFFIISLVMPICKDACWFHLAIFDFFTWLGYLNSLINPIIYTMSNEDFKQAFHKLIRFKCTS
Protocol: as §1

[7] = target: T7, cloned human or rodent CNS receptors, channels, and transporters (PDSP panel) (Homo sapiens, UniProt P35462); assay: PDSP GPCR panel primary binding assays at 10 μM; settings: D3, primary assay; for Mean %: mean inhibition; for Inhibition 1: replicate 1; for Inhibition 2: replicate 2; for Inhibition 3: replicate 3; for Inhibition 4: replicate 4
T7 construct: expressed in transfected cells
T7 sequence (P35462 whole entry): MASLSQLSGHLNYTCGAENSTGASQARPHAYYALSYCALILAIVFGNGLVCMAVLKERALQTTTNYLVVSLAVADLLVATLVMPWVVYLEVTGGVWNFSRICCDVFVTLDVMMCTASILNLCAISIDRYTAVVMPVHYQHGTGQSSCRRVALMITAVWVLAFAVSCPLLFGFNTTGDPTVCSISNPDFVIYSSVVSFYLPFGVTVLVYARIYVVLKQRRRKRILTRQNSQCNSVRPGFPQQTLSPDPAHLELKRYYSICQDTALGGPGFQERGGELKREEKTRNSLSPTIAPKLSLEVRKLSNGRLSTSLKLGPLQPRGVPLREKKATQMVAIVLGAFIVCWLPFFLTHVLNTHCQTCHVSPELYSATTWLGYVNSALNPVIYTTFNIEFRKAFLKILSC
Protocol: as §1

[8] = target: T8, cloned human or rodent CNS receptors, channels, and transporters (PDSP panel) (Homo sapiens, UniProt P41595); assay: PDSP GPCR panel primary binding assays at 10 μM; settings: 5-HT2B, primary assay; for Mean %: mean inhibition; for Inhibition 1: replicate 1; for Inhibition 2: replicate 2; for Inhibition 3: replicate 3; for Inhibition 4: replicate 4
T8 construct: expressed in transfected cells
T8 sequence (P41595 whole entry): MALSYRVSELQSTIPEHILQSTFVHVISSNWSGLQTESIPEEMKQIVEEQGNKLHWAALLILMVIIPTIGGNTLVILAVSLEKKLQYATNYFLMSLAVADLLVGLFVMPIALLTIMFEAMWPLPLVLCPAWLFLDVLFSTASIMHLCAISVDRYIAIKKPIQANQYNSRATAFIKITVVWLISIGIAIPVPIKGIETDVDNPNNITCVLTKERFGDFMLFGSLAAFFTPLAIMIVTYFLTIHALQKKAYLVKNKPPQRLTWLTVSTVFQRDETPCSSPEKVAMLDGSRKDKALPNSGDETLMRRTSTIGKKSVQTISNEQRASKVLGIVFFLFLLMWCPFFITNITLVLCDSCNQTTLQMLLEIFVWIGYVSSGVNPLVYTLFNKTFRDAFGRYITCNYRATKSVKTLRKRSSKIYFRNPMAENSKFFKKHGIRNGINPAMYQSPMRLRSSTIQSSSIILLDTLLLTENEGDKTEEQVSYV
Protocol: as §1

[9] = target: T9, cloned human or rodent CNS receptors, channels, and transporters (PDSP panel) (Homo sapiens, UniProt P50406); assay: PDSP GPCR panel primary binding assays at 10 μM; settings: 5-HT6, primary assay; for Mean %: mean inhibition; for Inhibition 1: replicate 1; for Inhibition 2: replicate 2; for Inhibition 3: replicate 3; for Inhibition 4: replicate 4
T9 construct: expressed in transfected cells
T9 sequence (P50406 whole entry): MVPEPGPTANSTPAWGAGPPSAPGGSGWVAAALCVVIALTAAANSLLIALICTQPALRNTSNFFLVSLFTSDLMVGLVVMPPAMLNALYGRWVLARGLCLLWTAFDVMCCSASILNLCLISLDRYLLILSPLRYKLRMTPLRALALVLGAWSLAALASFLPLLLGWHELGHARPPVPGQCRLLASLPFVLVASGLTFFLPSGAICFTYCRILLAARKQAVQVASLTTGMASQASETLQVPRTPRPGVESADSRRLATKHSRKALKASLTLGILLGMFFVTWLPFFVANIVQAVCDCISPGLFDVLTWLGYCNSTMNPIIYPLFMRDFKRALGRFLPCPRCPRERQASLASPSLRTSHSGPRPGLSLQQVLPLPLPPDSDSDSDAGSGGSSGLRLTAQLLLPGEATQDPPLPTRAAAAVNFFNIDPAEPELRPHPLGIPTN
Protocol: as §1

[10] = Snapshot IV PK in CD1 mice; assay type: in vivo
Protocol: PK data: For snapshot PK studies, pooled plasma was analyzed at 0.5h, 1h, 2h, and 4h following
a single IV dose (3 mg/kg) in CD1 mice (2 mice per cohort) for each compound (Table 2). […]

cellular system = test system: cellular system; parameters: method as in column References for potency and dosing (the 5th table c13); settings: published data; References for potency and dosing; cited from earlier work

CCC(=O)N1CCC(NC(=O)Nc2ccc(OC(F)(F)F)cc2)CC1 [UNC10302681A, TPPU]
Mean % [1]: -13.3% | Inhibition 1 [1]: -14.72% | Inhibition 2 [1]: -20.61% | Inhibition 3 [1]: -11.27% | Inhibition 4 [1]: -6.61% | Mean % [2]: 6.94% | Inhibition 1 [2]: 9.39% | Inhibition 2 [2]: 25.6% | Inhibition 3 [2]: 0.78% | Inhibition 4 [2]: -8.02% | Mean % [3]: -2.08% | Inhibition 1 [3]: 8.4% | Inhibition 2 [3]: -12.22% | Inhibition 3 [3]: -3.46% | Inhibition 4 [3]: -1.03% | Mean % [4]: -7.53% | Inhibition 1 [4]: -6.27% | Inhibition 2 [4]: -1.22% | Inhibition 3 [4]: -4.28% | Inhibition 4 [4]: -18.34% | Mean % [5]: 2.26% and 4.05% | Inhibition 1 [5]: -18.41% and 34.38% | Inhibition 2 [5]: -17.53% and 14.34% | Inhibition 3 [5]: 0.52% and -19% | Inhibition 4 [5]: 44.45% and -13.54% | Mean % [6]: -0.64% | Inhibition 1 [6]: 7.08% | Inhibition 2 [6]: 0.59% | Inhibition 3 [6]: -3.14% | Inhibition 4 [6]: -7.08% | Mean % [7]: -4.85% | Inhibition 1 [7]: -1.18% | Inhibition 2 [7]: -5.62% | Inhibition 3 [7]: -5.04% | Inhibition 4 [7]: -7.54% | Mean % [8]: 40.75% | Inhibition 1 [8]: 68.75% | Inhibition 2 [8]: 29.73% | Inhibition 3 [8]: 25.12% | Inhibition 4 [8]: 39.38% | Mean % [9]: -0.91% | Inhibition 1 [9]: 25.92% | Inhibition 2 [9]: -7.74% | Inhibition 3 [9]: -9.33% | Inhibition 4 [9]: -12.5% | clearance ([10]; CD1, mouse, plasma, iv, 3 mg/kg): 1.3 mL/min/kg | Cmax ([10]; CD1, plasma, mouse, 3.0 mg/kg): 2140 ng/mL | half-life ([10]; CD1, plasma, mouse, 3.0 mg/kg): 13.8 h | Vd ([10]; CD1, plasma, mouse, 3.0 mg/kg, read-out: Vss): 1.55 L/kg | CL ([10]; mouse, 3.0 mg/kg): 1.31 mL/min/kg | Reported as cell active (<10 μM) (cellular system): Y (Published data supports that the compound is active in a cellular system when dosed at 10 μM (Y/N))

MDL 28170 [UNC10302675A]
Mean % [1]: 1.32% | Inhibition 1 [1]: -8.82% | Inhibition 2 [1]: -11.77% | Inhibition 3 [1]: 0.03% | Inhibition 4 [1]: 25.84% | Mean % [2]: 2.42% | Inhibition 1 [2]: 14.05% | Inhibition 2 [2]: 0.78% | Inhibition 3 [2]: -1.81% | Inhibition 4 [2]: -3.36% | Mean % [3]: -18.47% | Inhibition 1 [3]: -14.97% | Inhibition 2 [3]: -19.19% | Inhibition 3 [3]: -16% | Inhibition 4 [3]: -23.71% | Mean % [4]: 3.1% | Inhibition 1 [4]: 35% | Inhibition 2 [4]: -0.46% | Inhibition 3 [4]: -13.75% | Inhibition 4 [4]: -8.4% | Mean % [5]: 1.5% and 5.58% | Inhibition 1 [5]: 1.64% and 23.85% | Inhibition 2 [5]: -18.73% and 10.38% | Inhibition 3 [5]: -4.59% and 3.46% | Inhibition 4 [5]: 27.68% and -15.39% | Mean % [6]: 7.62% | Inhibition 1 [6]: 14.84% | Inhibition 2 [6]: 5.24% | Inhibition 3 [6]: 9.43% | Inhibition 4 [6]: 0.96% | Mean % [7]: -4.37% | Inhibition 1 [7]: 0.36% | Inhibition 2 [7]: 5.37% | Inhibition 3 [7]: -17.38% | Inhibition 4 [7]: -5.81% | Mean % [8]: -23.86% | Inhibition 1 [8]: -2.15% | Inhibition 2 [8]: -34.45% | Inhibition 3 [8]: -28.58% | Inhibition 4 [8]: -30.26% | Mean % [9]: -4.53% | Inhibition 1 [9]: 18.94% | Inhibition 2 [9]: -17.59% | Inhibition 3 [9]: -16% | Inhibition 4 [9]: -3.45% | Reported as cell active (<10 μM) (cellular system): Y (Published data supports that the compound is active in a cellular system when dosed at 10 μM (Y/N))
